Assay results from patent US11040108B2, “Amino acid- and peptide-steroid conjugates and use thereof” (BRANDEIS UNIVERSITY, priority 2016, dated 2021).
Converted amounts (≈) assume the structure as drawn. Where two headings read alike, the source gives them in different places.

Tests used:
[1] = TEM of assemblies in aqueous solution; assay type: physicochemical; conditions: 1.0 wt %; for diameter of assemblies on direct dissolution in water: without ALP, 1b spheres-like vesicle, 2b nanoribbon
Method: Sample solution (5 sufficient to cover the grid surface) was placed on the grid. Approximately 10 sec later, sample was rinsed by placing a large drop of the ddH2O on parafilm and allowing the grid to touch the water drop, with the sample-loaded surface facing the parafilm. The grid was tilted and water was gently absorbed from the edge of the grid using a filter paper sliver. This procedure was repeated 3 times. Immediately after rinsing, the staining was conducted by placing a large drop of the uranyl acetate (UA) stain solution on parafilm and allowing the grid to touch the stain solution drop, with the sample-loaded surface facing the parafilm. The grid was tilted and the stain solution was gently absorbed from the edge of the grid using a filter paper sliver. Next, the grid was allowed to dry in air and the grid was examined as soon as possible.
To further understand the inhibitory activity of 1a, transmission electron microscopy (TEM) was used to confirm the EISA of 1b. […] In contrast, uniform nanofibers (diameter of 10±2 nm) formed after the addition of ALP (1 U/mL) into the solution of 1a (FIG. 3B). The resulted nanofibers entangled with each other to result in a viscous solution. […] But the direct dissolution of 2b (1.0 wt %) provided an aqueous solution containing nanoribbon with the diameter of 17±2 nm and in several hundred nanometer length (FIG. 4B). These observations, collectively, confirmed that enzymatic reaction modulated the morphology of the assemblies of the cholesterol conjugates, which partially contributed to the different inhibitory activities of 1a, 1b, 2a, and 2b. That is, being exposed to the cancer cell, 1a (or 2a) turns into 1b (or 2b), a process catalyzed by the extra- or intracellular enzymes of the cancer cells; the resulting 1b (or 2b) self-assembled to form nanoscale assemblies that result in death of the cancer cell.

[2] = test system: A2780cis cells; assay: MTT assay, cytotoxicity against A2780cis; assay type: cell-based, human
Method: (§1) HeLa, Saos-2, HS-5, HepG2, T98G, and A2780 cells were purchased from American-type Culture Collection (ATCC, USA). A2780cis cell was purchased from Sigma. HeLa cells, HepG-2 cells, and T98G cells were cultured in MEM Medium supplemented with 10% v/v fetal bovine serum, 100 U/mL penicillin, and 100 μg/mL streptomycin. Saos-2 cells were cultured in McCoy's 5a Medium (for Saos-2) supplemented with 15% v/v fetal bovine serum, 100 U/mL penicillin, and 100 μg/mL streptomycin. HS-5 cells were cultured in Dulbecco's Modified Eagle's medium (DMEM) supplemented with 10% v fetal bovine serum (FBS), 100 U/mL penicillin, and 100 μg/mL streptomycin. A2780cis cells were cultured in RPMI 1640 Medium supplemented with 10% v/v fetal bovine serum, 100 U/mL penicillin, and 100 μg/mL streptomycin (cisplatin only necessary every 2-3 passages). All cells were maintained at 37° C. in a humidified atmosphere of 5% CO2.
(§2) An MTT assay was used to test the cytotoxicity. All different cell lines were seeded in 96-well plates at 1×10^5 cells/well for 24 hours followed by removal of the culture medium and subsequent addition of culture medium containing different concentrations of the precursors. At designated time (24/48/72 hours), 10 μL MTT solution (5 mg/mL) was added to each well and incubated at 37° C. for another 4 hours, and then 100 μL of SDS-HCl solution was added to stop the reduction reaction and dissolve the purple formazan. The absorbance of each well at 595 nm was measured by a multimode microplate reader. The cytotoxicity assay was performed three times and the average value of the three measurements was taken.
The activity of conjugate 1a against a platinum-resistant, ovarian cancer cell line (A2780cis) (Behrens et al., “Characterization of a Cis-Diamminedichloroplatinum(Ii)-Resistant Human Ovarian Cancer Cell Line and its Use in Evaluation of Platinum Analogues,” Cancer Res. 47:414 (1987); Masuda et al., “Increased DNA Repair as a Mechanism of Acquired Resistance to Cis-Diamminedichloroplatinum (II) in Human Ovarian Cancer Cell Lines,” Cancer Res. 48:5713 (1988), which are hereby incorporated by reference in their entirety) was first examined. To assess the efficacy of conjugate 1a, the assay was carried out in parallel using the known, clinically used cytotoxic agent, cisplatin.

[3] = test system: HS-5 cell line (human bone marrow stroma cell line); assay: MTT assay, cell viability of HS-5; assay type: cell-based; conditions: 12.5 μM, 48 hours (FIG. 5A)
Method: as §1, §2
To verify the selectivity of 1a against cancer cells, the HS-5 cell line (human bone marrow stroma cell line) was used; HS-5 hardly overexpresses ALP on cell surface. […] To further confirm that ALP on cell surface (i.e., as an ectophosphatase) contributed to the inhibitory activity of 1a, A2780cis were incubated with 1a and ALP (1 U/mL).
Additional cell viability assays were carried out using conjugates 1a and 1b, optionally with 3, against HepG2 human liver carcinoma cells, Saos-2 osteosarcoma cells, T98G glioblastoma cells, HS-5 (normal bone marrow stromal cells), A2780 ovarian cancer cells (parental line to A2780cis), and Kuramochi ovarian cancer cells. Conjugate 1a was particularly effective against ovarian and cervical cancer cells.

[4] = test system: HeLa cells; assay: MTT assay, cytotoxicity against HeLa; assay type: cell-based, human; conditions: for IC50: Homo sapiens, HeLa, 48 h, read-out: IC50 against HeLa cell
Method: as §1, §2
To confirm that assemblies of the cholesterol conjugate are able to inhibit other cancer cell lines, 1a was incubated with HeLa cells, a widely studied malignant cervical cancer cell line.

[5] = test system: HeLa, A2780cis, OVASHO, MES-SA/dx5 and Saos-2 cells; assay: NBD visualization of nano-aggregates in cancer cell lines (CLSM); assay type: cell-based; conditions: 25 μM; 11a in all five cell lines, 11b in OVASHO and MES-SA/dx5
Method: Different cancer cells at the density of 1.5×10^5 were seeded onto 3.5 cm confocal dish. After the growth of cells in cell incubator for 24 h, 11a (or 11b) at 25 μM was added to the above solution with completed medium. At designated times, PBS was used to wash cells 3 times for 1 minute. Hoechst 33342 was used to stain cell nucleus for 10 minutes, and cells were then washed using live cell imaging solution 3 times for 1 minute. Cells were maintained in live cell imaging solution, and CLSM was carried out immediately. The excitation of wavelength was 488 nm, and the emission was 500 nm to 596 nm.

[6] = test system: A2780 cell line; assay: Cell viability of unstimulated or selected A2780 cell line (acquired resistance); assay type: cell-based; conditions: after five weeks treatment with gradually increased concentrations; 24, 48, 72 h
Method: as §2
The activity of 1a against non-drug resistant cancer cells was assessed using the A2780 cell line.

[7] = read-out: IC50 against A2780cis, 72 hours
[8] = 48 hours (FIG. 9A), unit inferred
[9] = concentration of 100 μM (FIG. 10)

SMILES: CC(C)CCC[C@@H](C)C1CC[C@H]2[C@@H]3CC=C4CC(OC(=O)NC(Cc5ccc(O)cc5)C(=O)O)CC[C@]4(C)[C@H]3CC[C@]12C (stereo partly drawn) [1b, Cholesterol-D-Tyr]
- diameter of assemblies on direct dissolution in water [1]: 25±2 nm
- cell viability / proliferation of A2780cis ([2]; 12.5 μM, 48 hours (FIG. 5A)): hardly inhibited
- IC50 ([2]; Homo sapiens, A2780cis, 72 h, read-out: IC50 against A2780cis, 72 hours): 50 µM
- cell viability / proliferation of HS-5 [3]: hardly inhibited
- IC50 [4]: 89.7 µM

SMILES: CC(C)CCC[C@@H](C)C1CC[C@H]2[C@@H]3CC=C4CC(OC(=O)NC(Cc5ccc(OP(=O)(O)O)cc5)C(=O)O)CC[C@]4(C)[C@H]3CC[C@]12C (stereo partly drawn) [2a, Cholesterol-(phospho)L-Tyr]
- morphology in aqueous solution without ALP ([1]; pH 7.4): disorder aggregates
- diameter of nanofibers formed after addition of ALP ([1]; pH 7.4, ALP 1 U/mL, 24 hours): 15±2 nm
- IC50 against A2780cis ([2]; 72 hours): 15.2 µg/mL (≈ 22.6 µM)
- IC50 [2, 7]: 22 µM
- IC50 [4, 8]: 43.8 µM

SMILES: CC(C)CCC[C@@H](C)C1CC[C@H]2[C@@H]3CC=C4CC(OC(=O)NC(Cc5ccc(O)cc5)C(=O)O)CC[C@]4(C)[C@H]3CC[C@]12C (stereo partly drawn) [2b, Cholesterol-L-Tyr]
- diameter of assemblies on direct dissolution in water [1]: 17±2 nm
- IC50 [2, 7]: 36 µM
- IC50 [4, 8]: 59.2 µM

SMILES: CC(C)CCC[C@@H](C)C1CC[C@H]2[C@@H]3CC=C4CC(OC(=O)NC(Cc5ccc(OP(=O)(O)O)cc5)C(=O)N[C@H](CCCCNc5ccc([N+](=O)[O-])c6nonc56)C(=O)O)CC[C@]4(C)[C@H]3CC[C@]12C (stereo partly drawn) [11a, cholesterol-(phospho)y-(NBD)k]
- presence of nano-aggregates in or on treated cells [5]: confirmed presence of nano-aggregates

SMILES: CC(C)CCC[C@@H](C)C1CC[C@H]2[C@@H]3CC=C4CC(OC(=O)NC(Cc5ccc(O)cc5)C(=O)N[C@H](CCCCNc5ccc([N+](=O)[O-])c6nonc56)C(=O)O)CC[C@]4(C)[C@H]3CC[C@]12C (stereo partly drawn) [11b, cholesterol-y-(NBD)k]
- presence of nano-aggregates in or on treated cells [5]: confirmed presence of nano-aggregates

SMILES: N.N.[Cl][Pt][Cl] [cisplatin, reference compound]
- inhibition of A2780 and acquired drug resistance [6]: caused platinum-resistance
- IC50 against A2780cis ([2]; 48 hours): 21.2 µg/mL
- IC50 against A2780cis ([2]; 72 hours): 12.2 µg/mL
- IC50 ([2]; 72 hours, read-out: IC50 against A2780cis): 41 µM

SMILES: CC(C)CCC[C@@H](C)C1CC[C@H]2[C@@H]3CC=C4CC(OC(=O)NC(Cc5ccccc5)C(=O)O)CC[C@]4(C)[C@H]3CC[C@]12C (stereo partly drawn) [compound 3, Cholesterol-D-Phe]
- effect on A2780cis cells [2, 9]: innocuous
- effect on HeLa cells [4, 9]: innocuous
